# Active and inactive are the calls of the source. The calls are words filed in the database; no cut-off is given here.
# What was measured:
# Plasmodium falciparum [1] = experiment: Antimicrobial activity against Plasmodium falciparum D6 after 72 hrs by LDH activity assay; format: functional, organism-based
# Plasmodium falciparum [2] = experiment: Antimicrobial activity against Plasmodium falciparum W2 after 72 hrs by LDH activity assay; format: functional, organism-based
# Vero = experiment: Cytotoxicity against african green monkey Vero cells after 48 hrs by Neutral Red assay; format: cell-based; conditions: Chlorocebus sabaeus
# HepG2 = experiment: Cytotoxicity against human HepG2 cells after 48 hrs by Neutral Red assay; format: cell-based; conditions: HepG2, 48 h
# LLC-PK1 = experiment: Cytotoxicity against a pig LLC-PK1 cells after 48 hrs by Neutral Red assay; format: cell-based; conditions: Sus scrofa, LLC-PK1, 48 h
# Candida albicans = experiment: Antimicrobial activity against Candida albicans by NCCLS method; format: functional, organism-based
# Aspergillus fumigatus = experiment: Antimicrobial activity against Aspergillus fumigatus by NCCLS method; format: functional, organism-based
# Staphylococcus aureus [3] = experiment: Antimicrobial activity against methicillin-resistant Staphylococcus aureus by NCCLS method; format: functional, organism-based
# Cryptococcus neoformans = experiment: Antimicrobial activity against Cryptococcus neoformans by NCCLS method; format: functional, organism-based
# Staphylococcus aureus [4] = experiment: Antimicrobial activity against Staphylococcus aureus by NCCLS method; format: functional, organism-based
# Leishmania donovani = experiment: Antileishmanial activity against Leishmania donovani promastigotes after 48 hrs by Alamar Blue assay; format: functional, organism-based
# [5] = Selectivity index, ratio of IC50 for pig LLC-PK1 cells to IC50 for Plasmodium falciparum D6; format: toxicity, cell-based; conditions: read-out: Ratio IC50
# [6] = Selectivity index, ratio of IC50 for human HepG2 cells to IC50 for Plasmodium falciparum W2; format: toxicity, cell-based; conditions: read-out: Ratio IC50
# [7] = Selectivity index, ratio of IC50 for pig LLC-PK1 cells to IC50 for Plasmodium falciparum W2; format: toxicity, cell-based; conditions: read-out: Ratio IC50
# [8] = Selectivity index, ratio of IC50 for african green monkey Vero cells to IC50 for Plasmodium falciparum D6; format: toxicity, cell-based; conditions: read-out: Ratio IC50
# [9] = Selectivity index, ratio of IC50 for human HepG2 cells to IC50 for Plasmodium falciparum D6; format: toxicity, cell-based; conditions: read-out: Ratio IC50
# [10] = Selectivity index, ratio of IC50 for african green monkey Vero cells to IC50 for Plasmodium falciparum W2; format: toxicity, cell-based; conditions: read-out: Ratio IC50
# [11] = Leishmania donovani, 48 h, read-out: IC50
# [12] = Plasmodium falciparum, D6, 72 h, read-out: IC50
# [13] = Plasmodium falciparum, W2, 72 h, read-out: IC50
# [14] = Staphylococcus aureus, read-out: IC50
Structure (SMILES),IC50 (Plasmodium falciparum [2]),IC50 (Vero) [µM],IC50 (HepG2) [µM],IC50 (LLC-PK1) [µM],MBC (Cryptococcus neoformans),MIC (Cryptococcus neoformans),IC90 (Leishmania donovani),IC50 (Leishmania donovani; [11]) [µM],selectivity ratio [5],selectivity ratio [6],IC50 (Plasmodium falciparum [1]; [12]) [µM],selectivity ratio [7],IC50 (Plasmodium falciparum [2]; [13]) [µM],selectivity ratio [8],selectivity ratio [9],selectivity ratio [10],other results
Nc1nccc(-c2cn(Cc3ccc(Cl)s3)c3ccccc23)n1,Not Active,> 74,> 74,> 74,14.7 µM,14.7 µM,inactive,41.3,–,–,–,–,–,–,–,–,IC50 (Plasmodium falciparum [1]): Not Active; Activity (Candida albicans): inactive; Activity (Aspergillus fumigatus): inactive; IC50 (Staphylococcus aureus [3]): Not Active; MBC (Staphylococcus aureus [3]): inactive; MIC (Staphylococcus aureus [3]): inactive; IC50 (Cryptococcus neoformans): 13 µM; IC50 (Staphylococcus aureus [4]): Not Active; MBC (Staphylococcus aureus [4]): inactive; MIC (Staphylococcus aureus [4]): inactive
Nc1nccc(-c2cn(CN3C(=O)c4ccccc4C3=O)c3ccc(Br)cc23)n1,–,–,–,–,inactive,inactive,–,–,–,–,–,–,–,–,–,–,Activity (Plasmodium falciparum [1]): inactive; Activity (Plasmodium falciparum [2]): inactive; Activity (Candida albicans): inactive; Activity (Aspergillus fumigatus): inactive; IC50 (Staphylococcus aureus [3]): Not Active; MBC (Staphylococcus aureus [3]): inactive; MIC (Staphylococcus aureus [3]): inactive; IC50 (Cryptococcus neoformans): 26.9 µM; IC50 (Staphylococcus aureus [4]): Not Active; MBC (Staphylococcus aureus [4]): inactive; MIC (Staphylococcus aureus [4]): inactive; Activity (Leishmania donovani): inactive
Nc1nccc(-c2cn(C(=O)c3ccccc3)c3ccc(Br)cc23)n1,–,> 64,> 64,> 64,inactive,inactive,–,105,> 8.5,> 16,7.45,> 16,3.98,> 8.5,> 8.5,> 16,Activity (Candida albicans): inactive; Activity (Aspergillus fumigatus): inactive; IC50 (Staphylococcus aureus [3]): Not Active; MBC (Staphylococcus aureus [3]): inactive; MIC (Staphylococcus aureus [3]): inactive; IC50 (Cryptococcus neoformans): 24.3 µM; IC50 (Staphylococcus aureus [4]): Not Active; MBC (Staphylococcus aureus [4]): inactive; MIC (Staphylococcus aureus [4]): inactive
Nc1nccc(-c2cn(C(=O)N3CCOCC3)c3ccccc23)n1,–,> 77,> 77,> 77,–,–,inactive,–,> 19.3,> 25.1,4.01,> 25.1,3.08,> 19.3,> 19.3,> 25.1,IC50 (Leishmania donovani): Not Active
O=C1NC(c2c[nH]c3ccccc23)Nc2ccccc21 (centres undefined),–,–,–,–,–,–,–,–,–,–,–,–,–,–,–,–,Activity (Plasmodium falciparum [1]): inactive; Activity (Plasmodium falciparum [2]): inactive; Activity (Leishmania donovani): inactive
COc1cccc2c1C(=O)c1c(O)c3c(c(O)c1C2=O)C[C@@](O)(C(=O)CO)C[C@@H]3O[C@H]1C[C@H](N)[C@H](O)[C@H](C)O1 [DOXORUBICIN],–,7,2,< 1,–,–,–,–,–,–,–,–,–,–,–,–,–
Cc1noc(C)c1Cn1cc(-c2ccnc(N)n2)c2ccccc21,Not Active,> 78,> 78,> 78,–,–,inactive,–,> 6.3,–,12.4,–,–,> 6.3,> 6.3,–,IC50 (Leishmania donovani): Not Active
C[C@@H]1CC[C@H]2[C@@H](C)C(=O)O[C@@H]3O[C@@]4(C)CC[C@@H]1[C@]32OO4 [ARTEMISININ],–,–,–,–,–,–,–,–,–,–,< 0.09,–,< 0.09,–,–,–,–
Nc1nccc(-c2cn(Cc3c4ccccc4cc4ccccc34)c3ccc(Br)cc23)n1,–,> 52,> 52,> 52,–,–,inactive,–,> 4.7,> 4.5,11.1,> 4.5,11.6,> 4.7,> 4.7,> 4.5,IC50 (Leishmania donovani): Not Active
CCOc1ccccc1C(=O)n1cc(-c2ccnc(N)n2)c2ccccc21,Not Active,> 70,> 70,> 70,inactive,inactive,–,47.4,–,–,–,–,–,–,–,–,IC50 (Plasmodium falciparum [1]): Not Active; Activity (Candida albicans): inactive; Activity (Aspergillus fumigatus): inactive; IC50 (Staphylococcus aureus [3]): Not Active; MBC (Staphylococcus aureus [3]): inactive; MIC (Staphylococcus aureus [3]): inactive; IC50 (Cryptococcus neoformans): 45.6 µM; IC50 (Staphylococcus aureus [4]): Not Active; MBC (Staphylococcus aureus [4]): inactive; MIC (Staphylococcus aureus [4]): inactive
C[C@@H]1[C@H](O)[C@@H](C)/C=C/C=C/C=C/C=C/C=C/C=C/C=C/[C@H](O[C@@H]2O[C@H](C)[C@@H](O)[C@H](N)[C@@H]2O)C[C@@H]2O[C@](O)(C[C@@H](O)C[C@@H](O)[C@H](O)CC[C@@H](O)C[C@@H](O)CC(=O)O[C@H]1C)C[C@H](O)[C@H]2C(=O)O [AMPHOTERICIN B],–,–,–,–,1.35 µM,1.35 µM,–,–,–,–,–,–,–,–,–,–,"IC90 (Leishmania donovani; Leishmania donovani, 48 h): 0.35 µM"
O=c1[nH]c(-c2c[nH]c3ccc(I)cc23)nc2ccccc12,Not Active,> 65,> 65,> 65,–,–,–,9.17,–,–,–,–,–,–,–,–,"IC50 (Plasmodium falciparum [1]): Not Active; IC90 (Leishmania donovani; Leishmania donovani, 48 h): 14.2 µM"
N=C(N)c1ccc(OCCCCCOc2ccc(C(=N)N)cc2)cc1 [PENTAMIDINE],–,–,–,–,–,–,–,–,–,–,–,–,–,–,–,–,"IC90 (Leishmania donovani; Leishmania donovani, 48 h): 6.21 µM"
Nc1nccc(-c2cn(C(=O)c3ccccc3)c3ccccc23)n1,–,> 80,> 80,> 80,–,–,inactive,–,> 7,> 17.4,11.4,> 17.4,4.58,> 7,> 7,> 17.4,IC50 (Leishmania donovani): Not Active
Nc1nccc(-c2cn(Cc3c4ccccc4cc4ccccc34)c3ccccc23)n1,–,> 63,> 63,> 63,–,–,–,80,> 8.9,> 5.7,7.06,> 5.7,11,> 8.9,> 8.9,> 5.7,–
O=C1NC(c2c[nH]c3ccc(Br)cc23)Nc2ccccc21 (centres undefined),Not Active,> 73,73,53,inactive,inactive,–,79.9,–,–,–,–,–,–,–,–,IC50 (Plasmodium falciparum [1]): Not Active; Activity (Candida albicans): inactive; Activity (Aspergillus fumigatus): inactive; MBC (Staphylococcus aureus [3]): inactive; MIC (Staphylococcus aureus [3]): inactive; IC50 (Staphylococcus aureus [3]; [14]): 20.9 µM; IC50 (Cryptococcus neoformans): 14.8 µM; MBC (Staphylococcus aureus [4]): inactive; MIC (Staphylococcus aureus [4]): inactive; IC50 (Staphylococcus aureus [4]; [14]): 25.2 µM
CN1CCN(C(=O)n2cc(-c3ccnc(N)n3)c3ccccc32)CC1,–,> 74,> 74,> 74,–,–,inactive,–,> 7.7,> 5.1,9.63,> 5.1,14.5,> 7.7,> 7.7,> 5.1,IC50 (Leishmania donovani): Not Active
CN1CCN(C(=O)n2cc(-c3ccnc(N)n3)c3cc(Br)ccc32)CC1,Not Active,> 60,> 60,> 60,–,–,–,40.5,–,–,–,–,–,–,–,–,"IC50 (Plasmodium falciparum [1]): Not Active; IC90 (Leishmania donovani; Leishmania donovani, 48 h): 108 µM"
COc1cccc(C(=O)n2cc(-c3ccnc(N)n3)c3ccccc32)c1,–,–,–,–,–,–,–,–,–,–,–,–,–,–,–,–,Activity (Plasmodium falciparum [1]): inactive; Activity (Plasmodium falciparum [2]): inactive; Activity (Leishmania donovani): inactive
Cc1noc(C)c1Cn1cc(-c2ccnc(N)n2)c2cc(Br)ccc21,–,> 63,> 63,> 63,–,–,inactive,107,> 6.5,> 4.3,9.62,> 4.3,14.6,> 6.5,> 6.5,> 4.3,–
Nc1nccc(-c2c[nH]c3ccccc23)n1,–,119,> 119,107,–,–,inactive,–,> 11.1,> 26.8,9.69,> 24.1,4.44,> 12.3,> 12.3,> 26.8,IC50 (Leishmania donovani): Not Active
Nc1nccc(-c2cn(C(=O)N3CCOCC3)c3ccc(Br)cc23)n1,–,–,–,–,–,–,–,–,–,–,–,–,–,–,–,–,Activity (Plasmodium falciparum [1]): inactive; Activity (Plasmodium falciparum [2]): inactive; Activity (Leishmania donovani): inactive
COCCn1cc(-c2ccnc(N)n2)c2cc(Br)ccc21,Not Active,> 72,> 72,43,57.6 µM,57.6 µM,–,23.6,–,–,–,–,–,–,–,–,"IC50 (Plasmodium falciparum [1]): Not Active; Activity (Candida albicans): inactive; Activity (Aspergillus fumigatus): inactive; IC50 (Staphylococcus aureus [3]): Not Active; MBC (Staphylococcus aureus [3]): inactive; MIC (Staphylococcus aureus [3]): inactive; IC50 (Cryptococcus neoformans): 27.4 µM; IC50 (Staphylococcus aureus [4]): Not Active; MBC (Staphylococcus aureus [4]): inactive; MIC (Staphylococcus aureus [4]): inactive; IC90 (Leishmania donovani; Leishmania donovani, 48 h): 52.2 µM"
